Ki data for 34 compounds are collected here from patent US8716475B2, “2-aminopyrimidine modulators of the histamine H4 receptor” (Janssen Pharmaceutica NV, priority 2007, dated 2014).

Where only a bound is given, the exact number is not on record here.

For the first test, the target named is T1, human H4 receptor (Homo sapiens, UniProt Q9H3N8).
T1 construct: expressed in transfected cells
T1 sequence (Q9H3N8 whole entry): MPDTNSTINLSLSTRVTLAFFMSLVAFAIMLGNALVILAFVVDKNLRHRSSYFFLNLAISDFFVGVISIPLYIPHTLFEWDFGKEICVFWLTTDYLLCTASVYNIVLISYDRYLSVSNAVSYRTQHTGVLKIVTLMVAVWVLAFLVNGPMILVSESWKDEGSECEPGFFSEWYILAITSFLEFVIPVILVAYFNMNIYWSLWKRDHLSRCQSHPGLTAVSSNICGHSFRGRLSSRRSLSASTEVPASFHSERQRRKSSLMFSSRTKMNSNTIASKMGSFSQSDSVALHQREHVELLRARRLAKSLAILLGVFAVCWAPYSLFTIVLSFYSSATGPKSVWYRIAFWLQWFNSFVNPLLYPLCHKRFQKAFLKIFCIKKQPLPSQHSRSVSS
The test is described as follows: Binding Assay on Recombinant Human Histamine H4 Receptor. The conditions noted are these: Table 2, data marked with an asterisk (*): obtained by the cell harvester method; [3H] histamine competition binding, SK-N-MC membranes. In outline: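 Radioligand binding used membranes from SK-N-MC cells stably or transiently expressing human H4, prepared in 50 mM Tris/5 mM EDTA. Nonspecific binding was defined with 100 μM histamine. Bound radioactivity was counted after filtration on PEI-treated GF/C filters, and ">" values are the highest concentration tested.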
In the case of `CN(CCN)c1cc(Cc2ccccc2)nc(N)n1` [Example 250, N^4-(2-Amino-ethyl)-6-benzyl-N^4-methyl-pyrimidine-2,4-diamine], the Ki is 0.564 µM.
As to `Nc1nc(C2Cc3ccccc3C2)cc(N2CC3CCCNC3C2)n1` (stereo not shown) [Example 251, 4-Indan-2-yl-6-(octahydro-pyrrolo[3,4-b]pyridin-6-yl)-pyrimidin-2-ylamine], the Ki amounted to 0.02 µM.

The same test, now with this note: Table 2; [3H] histamine competition binding, membranes of SK-N-MC cells transfected with human H4 receptor; average of results.
Take `Nc1nc(Cc2cccs2)cc(N2CC[C@@H](N)C2)n1` [Example 216, (R)-4-(3-Amino-pyrrolidin-1-yl)-6-thiophen-2-ylmethyl-pyrimidin-2-ylamine]: the Ki came out at 0.032 µM.
With `Nc1nc(Cc2cccs2)cc(N2CC3CCCNC3C2)n1` (stereo not drawn) [Example 217, 4-(cis-Octahydro-pyrrolo[3,4-b]pyridin-6-yl)-6-thiophen-2-ylmethyl-pyrimidin-2-ylamine], the Ki was found to be 0.009 µM.
On the same count and under the same terms, the same measure for `NCCNc1cc(Cc2cccs2)nc(N)n1` [Example 218, N^4-(2-Amino-ethyl)-6-thiophen-2-ylmethyl-pyrimidine-2,4-diamine]: 0.02 µM; for `COCc1cc(NCCN)nc(N)n1` [Example 219, N^4-(2-Amino-ethyl)-6-methoxymethyl-pyrimidine-2,4-diamine]: 0.89 µM; for `CN[C@@H]1CCN(c2cc(COC)nc(N)n2)C1` [Example 221, (R)-4-Methoxymethyl-6-(3-methylamino-pyrrolidin-1-yl)-pyrimidin-2-ylamine]: 0.043 µM.
The same measure, in the same setting: the same measure for `COCc1cc(N2CC[C@@H](N)C2)nc(N)n1` [Example 222, (R)-4-(3-Amino-pyrrolidin-1-yl)-6-methoxymethyl-pyrimidin-2-ylamine]: 0.023 µM; for `COCc1cc(N2CCN(C)CC2)nc(N)n1` [Example 223, 4-Methoxymethyl-6-(4-methyl-piperazin-1-yl)-pyrimidin-2-ylamine]: 0.015 µM.
Regarding `COCc1cc(N2CCNCC2)nc(N)n1` [Example 224, 4-Methoxymethyl-6-piperazin-1-yl-pyrimidin-2-ylamine], the Ki amounted to 0.026 µM.
As to `COCc1cc(N2C[C@H]3CCCN[C@H]3C2)nc(N)n1` [Example 226, (R,R)-4-Methoxymethyl-6-(octahydro-pyrrolo[3,4-b]pyridin-6-yl)-pyrimidin-2-ylamine], the Ki is 0.014 µM.
The same measure, in the same setting: the same measure for `CN1CCN(c2cc(CC3CCCO3)nc(N)n2)CC1` (stereo not shown) [Example 227, 4-(4-Methyl-piperazin-1-yl)-6-(tetrahydro-furan-2-ylmethyl)-pyrimidin-2-ylamine]: 0.017 µM.
With `CN[C@@H]1CCN(c2cc(CC3CCCO3)nc(N)n2)C1` (stereo partly drawn) [Example 228, (R)-4-(3-Methylamino-pyrrolidin-1-yl)-6-(tetrahydro-furan-2-ylmethyl)-pyrimidin-2-ylamine], the Ki was determined as 0.091 µM.
On the same count and under the same terms, as for `CN1C[C@@H]2CN(c3cc(CC4CCCO4)nc(N)n3)C[C@@H]2C1` (stereo partly drawn) [Example 229, 4-(cis-5-Methyl-hexahydro-pyrrolo[3,4-c]pyrrol-2-yl)-6-(tetrahydro-furan-2-ylmethyl)-pyrimidin-2-ylamine], the figure is 0.36 µM.
`Nc1nc(CC2CCCO2)cc(N2CCNCC2)n1` (stereo not shown) [Example 230, 4-piperazin-1-yl-6-(tetrahydro-furan-2-ylmethyl)-pyrimidin-2-ylamine]: the Ki came to 0.025 µM.
Still for that read-out and setting: the same measure for `Nc1nc(CC2CCCO2)cc(N2CC3CCCNC3C2)n1` (stereo not drawn) [Example 231, 4-(cis-Octahydro-pyrrolo[3,4-b]pyridin-6-yl)-6-(tetrahydro-furan-2-ylmethyl)-pyrimidin-2-ylamine]: 0.059 µM.
Still for that read-out and setting: as for `CN1CCN(c2cc(Cc3ccc(Cl)cc3)nc(N)n2)CC1` [Example 232, 4-(4-Chloro-benzyl)-6-(4-methyl-piperazin-1-yl)-pyrimidin-2-ylamine], the figure is 0.008 µM; as for `Nc1nc(Cc2ccc(Cl)cc2)cc(N2CCNCC2)n1` [Example 233, 4-(4-Chloro-benzyl)-6-piperazin-1-yl-pyrimidin-2-ylamine], 0.012 µM; as for `CN[C@@H]1CCN(c2cc(Cc3ccc(Cl)cc3)nc(N)n2)C1` [Example 234, (R)-4-(4-Chloro-benzyl)-6-(3-methylamino-pyrrolidin-1-yl)-pyrimidin-2-ylamine], 0.018 µM.
Take `Nc1nc(Cc2ccc(Cl)cc2)cc(N2CC[C@@H](N)C2)n1` [Example 235, (R)-4-(3-Amino-pyrrolidin-1-yl)-6-(4-chloro-benzyl)-pyrimidin-2-ylamine]: the Ki was 0.14 µM.
As for `CN1C[C@@H]2CN(c3cc(Cc4ccc(Cl)cc4)nc(N)n3)C[C@@H]2C1` [Example 236, 4-(4-Chloro-benzyl)-6-(cis-5-methyl-hexahydro-pyrrolo[3,4-c]pyrrol-2-yl)-pyrimidin-2-ylamine], the Ki turned out to be 0.249 µM.
Still for that read-out and setting: the same measure for `Nc1nc(Cc2ccc(Cl)cc2)cc(N2C[C@H]3CNC[C@H]3C2)n1` [Example 237, 4-(4-Chloro-benzyl)-6-(cis-hexahydro-pyrrolo[3,4-c]pyrrol-2-yl)-pyrimidin-2-ylamine]: 0.257 µM; for `CN(CCN)c1cc(Cc2ccc(Cl)cc2)nc(N)n1` [Example 238, N^4-(2-Amino-ethyl)-6-(4-chloro-benzyl)-N^4-methyl-pyrimidine-2,4-diamine]: 1.77 µM.
The same measure, in the same setting: as for `CCOCc1cc(N2CCN(C)CC2)nc(N)n1` [Example 239, 4-Ethyoxymethyl-6-(4-methyl-piperazin-1-yl)-pyrimidin-2-ylamine], the figure is 0.029 µM; as for `CCOCc1cc(N2CCNCC2)nc(N)n1` [Example 240, 4-Ethoxymethyl-6-piperazin-1-yl-pyrimidin-2-ylamine], 0.025 µM.
Same read-out and setting: the same measure for `CCOCc1cc(N2CC[C@@H](NC)C2)nc(N)n1` [Example 241, (R)-Ethoxymethyl-6-(3-methylamino-pyrrolidin-1-yl)-pyrimidin-2-ylamine]: 0.031 µM; for `CCOCc1cc(N2CC[C@@H](N)C2)nc(N)n1` [Example 242, (R)-Ethoxymethyl-6-(3-amino-pyrrolidin-1-yl)-pyrimidin-2-ylamine]: 0.022 µM; for `CC(C)OCc1cc(N2CCN(C)CC2)nc(N)n1` [Example 246, 4-Isopropoxymethyl-6-(4-methyl-piperazin-1-yl)-pyrimidin-2-ylamine]: 0.032 µM.
Take `Nc1nc(CCc2ccccc2)cc(N2CCNCC2)n1` [Example 247, 4-Phenethyl-6-piperazin-1-yl-pyrimidin-2-ylamine]: the Ki worked out at 0.003 µM.
Still for that read-out and setting: as for `Nc1nc(CCc2ccccc2)cc(N2CC(N)C2)n1` [Example 248, 4-(3-Amino-azetidin-1-yl)-6-phenethyl-pyrimidin-2-ylamine], the figure is 0.009 µM; as for `Nc1nc(C2CCOCC2)cc(N2CC[C@@H](N)C2)n1` [Example 249, (R)-4-(3-Amino-pyrrolidin-1-yl)-6-(tetrahydro-pyran-4-yl)-pyrimidin-2-ylamine], 0.087 µM.
Still for that read-out and setting: the same measure for `Nc1nc2c(c(N3CC(N)C3)n1)COCC2` [Example 252, 4-(3-Amino-azetidin-1-yl)-7,8-dihydro-5H-pyrano[4,3-d]pyrimidin-2-ylamine]: over 10 µM; for `Nc1nc2c(c(N3CC(N)C3)n1)CCCC2` [Example 253, 4-(3-Amino-azetidin-1-yl)-5,6,7,8-tetrahydro-quinazolin-2-ylamine]: over 10 µM; for `CN1C[C@@H]2CN(c3nc(N)nc4c3COCC4)C[C@@H]2C1` [Example 254, 4-(cis-5-Methyl-hexahydro-pyrrolo[3,4-c]pyrrol-2-yl)-7,8-dihydro-5H-pyranol-[4,3-d]pyrimidin-2-ylamine]: over 10 µM.
